The text below walks through data of patent US20060251717A1, “Memantine Oral Dosage Forms” (priority 2003, published 2006).

This data set can be described thus: Administration of memantine in 2 mg weekly increments to a patient suffering from glaucoma, tolerance observed. Type of data set: in vivo. To be noted: 2 mg tablet for one week. The protocol:
In certain cases, the initial administration of 5 mg of memantine, or the increase in the dosage by 5 mg increments, may be more than can be tolerated by the patient. […] The term adverse event refers to any undesirable side effect or toxic effect associated with memantine. In relation to embodiments of this type, it is preferable that the dose of memantine is increase by an increment of about 0.25 to about 0.5 mg each day until the maintenance dose is reached.
To a patient suffering from glaucoma, is administered a tablet comprising 2 mg of memantine is administered for one week. The patient then receives a tablet comprising a 4 mg dose for one week. The dose is increased by 2 mg each week until a 10 mg dose is reached at the beginning of the fifth week. […] The tablet comprising 10 mg of memantine is administered daily for as long as the drug is needed.
To a patient suffering from glaucoma, is administered a tablet comprising 2 mg of memantine is administered for one week. The patient then receives a tablet comprising a 4 mg dose for one week. The dose is increased by 2 mg each week until a 20 mg dose is reached at the beginning of the tenth week. […] The tablet comprising 20 mg of memantine is administered daily for as long as the drug is needed.

For `CC12CC3CC(C)(C1)CC(N)(C3)C2` [memantine], the “tolerance of the drug” value runs as follows: (dose increased by 2 mg each week until 10 mg at beginning of fifth week, first four weeks of administration) “improved tolerance”; (dose increased by 2 mg each week until 20 mg at beginning of tenth week, first nine weeks of administration) “improved tolerance”.
